Source: ChEMBL document CHEMBL4715876 (J Med Chem, 2020)
In brackets after ≈: the same amount, converted by molar mass.

How the values were obtained:
[1] = Tmax in BALB/C mouse at 10 mg/kg, po measured upto 24 hrs by LC-MS analysis; type: ADME, organism-based; conditions: in vivo
[2] = Cmax in BALB/C mouse at 10 mg/kg,po measured upto 24 hrs by LC-MS analysis; type: ADME, organism-based; design: route oral, dose 10 mg/kg, time <= 24; conditions: in vivo
[3] = AUClast in BALB/C mouse at 10 mg/kg,po measured upto 24 hrs by LC-MS analysis; type: ADME, organism-based; design: route oral, dose 10 mg/kg, time <= 24; conditions: in vivo
[4] = Oral bioavailability in BALB/C mouse at 10 mg/kg measured upto 24 hrs by LC-MS analysis; type: ADME, organism-based; conditions: in vivo
[5] = Tmax in BALB/C mouse at 1 mg/kg, iv measured upto 24 hrs by LC-MS analysis; type: ADME, organism-based; conditions: in vivo
[6] = Cmax in BALB/C mouse at 1 mg/kg, iv measured upto 24 hrs by LC-MS analysis; type: ADME, organism-based; design: route intravenous, dose 1 mg/kg, time <= 24; conditions: in vivo
[7] = AUClast in BALB/C mouse at 1 mg/kg, iv measured upto 24 hrs by LC-MS analysis; type: ADME, organism-based; design: route intravenous, dose 1 mg/kg, time <= 24; conditions: in vivo
[8] = Volume of distribution at steady state in BALB/C mouse at 1 mg/kg, iv measured upto 24 hrs by LC-MS analysis; type: ADME, organism-based; conditions: in vivo, read-out: Vdss
[9] = Lipophilicity, log D of compound at pH 7.4; type: physicochemical; conditions: buffer
[10] = Solubility of the compound; type: physicochemical

| Tmax [1] | Cmax [2] | AUC(0-t) at 24 h [3] | bioavailability [4] | Tmax [5] | Cmax [6] | AUC(0-t) at 24 h [7] | Vd [8] | logD [9] | solubility [10] | Compound |
| --- | --- | --- | --- | --- | --- | --- | --- | --- | --- | --- |
| 30 min | 4700 nM | 12 µM·h | 60% | 4.8 min | 1100 nM | 2 µM·h | 1.9 L/kg | 1.88 | 368 µM (≈ 166 µg/mL) | C[C@H](Nc1nc(N)nc(N)c1C#N)c1cc(=O)n2cc(F)ccc2c1-c1cc(F)cc(F)c1 |
| 30 min | 2600 nM | 3.5 µM·h | 22% | 4.8 min | 2300 nM | 1.6 µM·h | 1.3 L/kg | 1.26 | 691 µM (≈ 287 µg/mL) | C[C@H](Nc1nc(N)nc(N)c1C#N)c1cc2ccc(F)cn2c(=O)c1-c1ccccc1 |
| 60 min | 1300 nM | 2.4 µM·h | 16% | 4.8 min | 1400 nM | 1.5 µM·h | 1.8 L/kg | – | – | C[C@H](Nc1nc(N)nc(N)c1C#N)c1c(-c2ccccc2)c(=O)n2cc(F)ccc2c1C1CC1 |
| – | – | – | – | – | – | – | – | 2.49 | 50.6 µM (≈ 24.9 µg/mL) | C[C@H](Nc1nc(N)nc(N)c1C#N)c1c(-c2ccccc2)c(=O)n2cc(F)ccc2c1-c1ccccc1 |
